ChEMBL document CHEMBL1268971, “4,5-Dihydro-1H-pyrazolo[4,3-h]quinazolines as potent and selective Polo-like kinase 1 (PLK1) inhibitors” (Bioorg Med Chem Lett, 2010)
Active and inactive are the calls of the source. The rule behind the calls is not given here.

Assays:
HCT-116 = assay: Induction of cell cycle arrest in human HCT116 cells assessed as accumulation at G2/M phase at 0.005 to 0.5 uM after 24 hrs; format: functional, cell-based
[1] = target: Serine/threonine-protein kinase PLK2 (Homo sapiens, UniProt Q9NYY3); assay: Inhibition of PLK2
Sequence of Serine/threonine-protein kinase PLK2 (Q9NYY3 whole entry): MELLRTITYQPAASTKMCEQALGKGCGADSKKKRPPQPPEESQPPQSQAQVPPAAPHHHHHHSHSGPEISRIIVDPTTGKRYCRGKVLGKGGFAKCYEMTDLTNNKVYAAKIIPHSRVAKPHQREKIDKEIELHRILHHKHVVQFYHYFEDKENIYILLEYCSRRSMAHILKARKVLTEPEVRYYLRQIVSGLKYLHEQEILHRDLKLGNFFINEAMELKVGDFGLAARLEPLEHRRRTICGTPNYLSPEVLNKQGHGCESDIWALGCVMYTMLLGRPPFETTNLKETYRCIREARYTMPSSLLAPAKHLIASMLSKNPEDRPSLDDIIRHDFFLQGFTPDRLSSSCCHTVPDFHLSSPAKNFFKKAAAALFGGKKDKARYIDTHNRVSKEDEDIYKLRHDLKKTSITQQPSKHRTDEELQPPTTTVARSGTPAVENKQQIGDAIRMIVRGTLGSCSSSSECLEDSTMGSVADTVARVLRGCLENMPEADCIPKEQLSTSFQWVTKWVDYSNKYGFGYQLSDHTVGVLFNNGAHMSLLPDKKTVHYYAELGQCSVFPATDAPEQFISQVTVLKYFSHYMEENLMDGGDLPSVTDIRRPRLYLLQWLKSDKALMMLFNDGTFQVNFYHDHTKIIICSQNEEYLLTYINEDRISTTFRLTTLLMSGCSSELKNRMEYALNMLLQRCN

[2] = target: Cyclin-dependent kinase 2/cyclin A (Homo sapiens, UniProt P24941); assay: Inhibition of CDK2/Cyclin A; format: protein-complex assay
[3] = target: Serine/threonine-protein kinase Nek6 (Homo sapiens, UniProt Q9HC98); assay: Inhibition of NEK6
Sequence of Serine/threonine-protein kinase Nek6 (Q9HC98 whole entry): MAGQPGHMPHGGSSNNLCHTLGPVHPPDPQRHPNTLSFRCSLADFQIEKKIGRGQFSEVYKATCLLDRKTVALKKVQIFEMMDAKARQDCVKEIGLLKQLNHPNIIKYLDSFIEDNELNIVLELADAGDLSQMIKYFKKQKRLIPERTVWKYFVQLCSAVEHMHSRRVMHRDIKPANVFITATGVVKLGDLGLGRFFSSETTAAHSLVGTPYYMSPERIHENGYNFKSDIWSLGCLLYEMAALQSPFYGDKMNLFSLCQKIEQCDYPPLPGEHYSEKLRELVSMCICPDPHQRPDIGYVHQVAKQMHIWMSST

[4] = Inhibition of PDGFR
[5] = Volume of distribution at steady state in CD1 mouse at 10 mg/kg, iv administered as single dose by LC/MS/MS analysis; format: ADME, organism-based; parameters: dose 10 mg/kg, route intravenous; conditions: in vivo, read-out: Vdss
[6] = Cmax in CD1 mouse at 10 mg/kg, po administered as single dose by LC/MS/MS analysis; format: ADME, organism-based; parameters: dose 10 mg/kg, route oral; conditions: in vivo
[7] = AUC (0 to infinity) in CD1 mouse at 10 mg/kg, po administered as single dose by LC/MS/MS analysis; format: ADME, organism-based; parameters: time infinity, dose 10 mg/kg, route oral; conditions: plasma
HT-29 = assay: Antiproliferative activity against human HT-29 cells after 72 hrs by CellTiter-Glo assay; format: functional, cell-based; conditions: HT-29, 72 h
MIA PaCa-2 = assay: Antiproliferative activity against human MIAPaCa2 cells after 72 hrs by CellTiter-Glo assay; format: functional, cell-based; conditions: MIA PaCa-2, 72 h
[8] = Antiproliferative activity against human A2780/E6 cells after 72 hrs by CellTiter-Glo assay; format: functional, cell-based; conditions: A2780/E6, 72 h
[9] = Antiproliferative activity against human KU812 cells after 72 hrs by CellTiter-Glo assay; format: functional, cell-based; conditions: KU812, 72 h
A2780 = assay: Induction of apoptosis in human A2780 cells assessed as induction of PARP cleavage at 0.005 to 0.5 uM after 24 hrs
U2OS = assay: Induction of cell cycle arrest in human U2OS cells assessed as accumulation of cyclin B1-positive cells at 320 nM after 24 hrs by array scan assay
Mus musculus = assay: Toxicity in CD1 mouse xenografted with human HCT116 cells assessed as reversible body weight loss at 60 mg/kg, po daily administered on day 1, 2, 3 post-implantation in weekly schedule of 2 cycles; conditions: in vivo

For CN1CCN(c2ccc(OC(F)(F)F)c(Nc3ncc4c(n3)-c3c(c(C(N)=O)nn3C)CC4)c2)CC1, the Activity (HCT-116) was “Active”, the IC50 [1] was 3520 nM and the IC50 [2] was > 10000 nM. The IC50 [3] was 1660 nM, the IC50 [4] was > 10000 nM and the Vd [5] was 3.39 L/kg. It also gave a Cmax [6] of 290 nM, an AUC(0-inf) [7] of 1.04 µM·h and an IC50 (HT-29) of 8 nM. For the same compound, the IC50 (MIA PaCa-2) was 52 nM, the IC50 [8] was 5 nM and the IC50 [9] was 2 nM. The Activity (A2780) was “Active”, the Activity (U2OS) was 20% and the Activity (Mus musculus) was 13%.
